From patent publication US4746668A, “Method for treating retinopathy” (Daiichi Seiyaku Co., Ltd., priority 1986, dated 1988)
Several values for one entry are separate records, joined by “and”; a condition that tells them apart may be missing. Identical values can stand only once. Like-named read-outs stand apart in the source and are kept apart here.

How the values were obtained:
[1] = system: human whole blood aggregation; assay: Inhibition by Compound A of human whole blood aggregation (Impedance method); assay type: cell-based
Procedure: (§1) Blood was taken from median cubital vein or cephalic vein of normal men aged of 29 to 40, who had taken no anti-inflammatory drug at least for the last 10 days before testing, into a syringe containing 0.1 volume of 40 U/ml heparin aqueous solution (a product of Green Cross Corp., Japan).
(§2) Compound A was dissolved in a saline, and the solution obtained was used in the experiment.
(§3) As an aggregation inducing agent, an aqueous solution prepared by dissolving epinephrine or a platelet activating factor (hereinafter, PAF) in 25 mM Tris HCl-130 mM NaCl aqueous solution (pH 7.4) was used in the experiment.
(§4) 5 μl of saline solution of Compound A prepared in 1-4 was added to 1 ml of the whole blood, neutrophil suspension or PRP and an electrode was dipped thereinto. The mixture obtained was incubated for 2 minutes under the conditions that the temperature in cell was 37° C. and the stirring rate was 1000 r.p.m., and then 20 μl of aggregation inducing agent was added to the mixture. 4 minutes later, the variation in impedance (Δ.OMEGA.) was determined using Chrono-log aggregometer (540 type, a product of Chrono-log Co., Ltd). The intensity of the variation gave the aggregation activity. In determining the aggregation of neutrophils, 5 μg/ml of cytochalasin B was added to the incubated mixture, one minute prior to the addition of PAF solution. As a control, saline was used instead of saline solution of Compound A and the aggregation was determined as described above.

human neutrophils = assay: Inhibition by Compound A of PAF-induced adhesion-aggregation of human neutrophils (Impedance method); assay type: cell-based; settings: Neutrophil, 10 μM Compound A, 0.02 μM, read-out: Inhibition ratio
Procedure: as §1
10 ml of the blood obtained above was mixed with 3 ml of a 4.5% dextran aqueous solution, and the mixture was allowed to stand for 1 hour at room temperature. The supernatant was taken and centrifuged at 250 X g for 7 minutes. The precipitate was taken, and 3 ml of 0.2% sodium chloride aqueous solution was added thereto to lyse the red blood cells. The mixture was allowed to stand for 75 seconds and 7 ml of a 1.2% sodium chloride aqueous solution was added thereto. […] It was confirmed that the surviving ratio of nuetrophil in the resulting suspension was over 95% as determined by the trypan blue staining method. […]
5 μl of saline solution of Compound A prepared in 1-4 was added to 1 ml of the whole blood, neutrophil suspension or PRP and an electrode was dipped thereinto. […] 4 minutes later, the variation in impedance (Δ.OMEGA.) was determined using Chrono-log aggregometer (540 type, a product of Chrono-log Co., Ltd). […] As a control, saline was used instead of saline solution of Compound A and the aggregation was determined as described above.

[2] = system: human neutrophil aggregation; assay: Inhibition by Compound A of PAF-induced human neutrophil aggregation (Optical method); assay type: cell-based
Procedure: as §1
10 ml of the blood obtained above was mixed with 3 ml of a 4.5% dextran aqueous solution, and the mixture was allowed to stand for 1 hour at room temperature. The supernatant was taken and centrifuged at 250 X g for 7 minutes. The precipitate was taken, and 3 ml of 0.2% sodium chloride aqueous solution was added thereto to lyse the red blood cells. The mixture was allowed to stand for 75 seconds and 7 ml of a 1.2% sodium chloride aqueous solution was added thereto. The mixture was centrifuged at 250 X g for 7 minutes to obtain the precipitate which contained mainly neutrophils. When the red blood cell was not sufficiently removed, the above procedure for lysis of red blood cell was repeated. The precipitate was washed with 10 ml of a phosphate buffer solution containing 0.5% glucose (hereinafter, PBSG), and the mixture was centrifuged at 250 X g for 7 minutes to take the precipitate. The above washing procedure was repeated twice, and the precipitate obtained was added to PBSG or PBSG containing 0.5% human serum albumin to obtain the neutrophil suspension. It was confirmed that the surviving ratio of nuetrophil in the resulting suspension was over 95% as determined by the trypan blue staining method. A blood cell counter (a product of Nihon Koden Co., Ltd) was used to count the number of neutrophils. The mixture was preserved at 4° C. before use. […]
5 μl of saline solution of Compound A prepared in 1-4) was added to 1 ml of neutrophil suspension and the mixture was incubated for 2 minutes under the conditions that the temperature in cell was 37° C. and the stirring rate was 1,000 r.p.m. […] The aggregation was determined optically using the Chrono-log aggregometer. As a control, saline was used instead of saline solution of Compound A and the aggregation was determined as described above.

[3] = system: human platelet aggregation; assay: Inhibition by Compound A of PAF-induced human platelet aggregation; assay type: cell-based
Procedure: as §1
The blood obtained in (1) was centrifuged at 190 X g for 7 minutes. The supernatant was taken to obtain the platelets rich plasma (hereinafter, PRP). Platelet counter (a product of Toa Co., Ltd) was used to count the number of platelets.
as §2, §3, §4

[4] = Acute toxicity (LD50) in rats, oral; settings: rat, in vivo, administered orally
diabetic retinopathy = assay: Clinical trial in patients having diabetic retinopathy, funduscopic observation; assay type: in vivo, human; design: key to Funduscopic observation: microaneurysms / Funduscopic observation: dot hemorrhage: +: observed; ±: slightly observed; -: not observed; settings: 300 to 900 mg daily orally; for Funduscopic observation: microaneurysms / Funduscopic observation: dot hemorrhage: + + at start
Procedure: Compound A was administered orally at dose of 300 to 900 mg daily to patients having diabetic retinopathy for a period of a month to about 2 years. Microaneurysms, dot hemorrhage, retina edema, hard exudate, arterialization and maculopathy in Fundus oculi, which were indications for retinopathy, were investigated using a funduscope.

blood glucose level = settings: as disclosed in U.S. Pat. No. 4,138,491; cited from earlier work
platelet aggregation = settings: as disclosed in U.S. Pat. No. 4,138,491; cited from earlier work
retinal vesseles = settings: injected into retinal artery of rabbit; cited from earlier work
[5] = patient B, left eye, 116 weeks after administration
[6] = patient B, right eye, 116 weeks after administration

c1ccc(C(CC2=NCCN2)c2ccccn2)cc1 (stereo not drawn) [Compound A, 2-(2-phenyl-2-(2-pyridyl))ethyl-2-imidazoline]
IC50 ([1]; Homo sapiens, in vitro, Epinephrine (2 μM), individual values of n = 3, read-out: IC50): 5.6 µM | IC50 ([1]; Homo sapiens, in vitro, Epinephrine (2 μM), n = 3, read-out: IC50, average ± s.d.): 5.2 ± 0.7 µM | IC50 ([1]; Homo sapiens, induced by PAF (0.02 μM), n=3, read-out: IC50, average): 2.8 µM | IC50 ([1]; Homo sapiens, induced by epinephrine (2 μM), n=3, read-out: IC50): ~5 µM | IC50 ([1]; in vitro, Epinephrine (2 μM), individual values of n = 3, read-out: IC50): 4.2 µM and 5.8 µM | IC50 ([1]; in vitro, PAF (0.02 μM), individual values of n = 3, read-out: IC50): 1.8 µM and 4.6 µM | inhibition at 10 µM (human neutrophils): 59% | inhibition at 5 µM ([2]; Homo sapiens, Neutrophil, 5 μM Compound A, PAF, 2 μM, optical method, read-out: inhibition ratio): 68% | inhibition at 10 µM ([2]; Homo sapiens, Neutrophil, 10 μM Compound A, PAF, 2 μM, optical method, read-out: inhibition ratio): 83% | PAF-induced human neutrophil aggregation ([2]; at low concentration): inhibited the PAF-induced human neutrophil aggregation at low concentration | inhibition at 10 µM ([3]; Homo sapiens, Platelet, 10 μM Compound A, PAF, 2 μM, read-out: Inhibition ratio): 0% | inhibition at 50 µM ([3]; Homo sapiens, Platelet, 50 μM Compound A, PAF, 2 μM, read-out: Inhibition ratio): 45% | inhibition at 100 µM ([3]; Homo sapiens, Platelet, 100 μM Compound A, PAF, 2 μM, read-out: Inhibition ratio): 82% | PAF-induced human platelet aggregation ([3]; low versus high concentration): did not inhibit PAF-induced human platelet aggregation at a low concentration but did at a high concentration | LD50 [4]: 867 mg/kg | microaneurysms and dot hemorrhage (diabetic retinopathy; 3 patients): disappearance or reduction of microaneurysms and dot hemorrhage were observed | Funduscopic observation: microaneurysms (diabetic retinopathy; patient A, left eye, 58 weeks after administration): - | Funduscopic observation: microaneurysms (diabetic retinopathy; patient A, right eye, 58 weeks after administration): - | Funduscopic observation: dot hemorrhage (diabetic retinopathy; [5]): - | Funduscopic observation: microaneurysms (diabetic retinopathy; [5]): - | Funduscopic observation: dot hemorrhage (diabetic retinopathy; [6]): - | Funduscopic observation: microaneurysms (diabetic retinopathy; [6]): - | Funduscopic observation: dot hemorrhage (diabetic retinopathy; patient C, left eye, 109 weeks after administration): ± | Funduscopic observation: dot hemorrhage (diabetic retinopathy; patient C, right eye, 109 weeks after administration): ± | blood glucose level (blood glucose level): reduces the blood glucose level | platelet aggregation (platelet aggregation): inhibits platelet aggregation

CCCCCCCCCCCCCCCCOCC(COP(=O)([O-])OCC[N+](C)(C)C)OC(C)=O (stereo not drawn) [PAF]
state of retinal vessels (retinal vesseles): a sludge-like state is observed in retinal vesseles
